# Experimental data as given in patent US11672786B2, “Methods of treating diseases associated with repeat instability” (The Hospital for Sick Children, priority 2016, dated 2023).
# Tested on: HPRT1 exons 2 and 3, HD primary fibroblast cell line GM09197
# Test: HPRT1 sequence analysis by SMRT-CCS sequencing (general mutagen test)
# Assay type: cell-based, human
# Source text: Towards assessing whether NA-treatment acted as a general mutagen to sequences other than CAG slip-outs, the high read accuracy and depth of single molecule, real time, circular consensus sequencing (SMRT-CCS) was harnessed. Single-molecule sequencing was done on the HPRT1 gene—widely used as a surrogate indicator of the global effect of induced genetic variation. Single-molecule sequencing can detect mutations at frequencies below 0.5% with no false positives. Panel A of FIG. 13 is a schematic of HPRT1 sequencing for mutation detection. Briefly, cells were grown under identical conditions differing only by the addition of NA (50 μM) or saline, DNAs were isolated, HPRT1 exons 2 and 3 PCR amplified and sequenced. Panel B of FIG. 13 are graphs showing the comparison of sequence variations between NA-treated and saline-treated samples. We chose to compare the single-molecule sequence reads of individual X chromosome-linked HPRT1 alleles (exons 2 and 3, 2,897 nucleotides) from the HD patient-derived cells that had been NA- or saline-treated. In this manner, each read would represent a single cell. Graphs show the distribution of sequence variants by relative mutation rate between three experimental replicates of NA-treated and saline-treated cells sequenced with PacBio single-molecule long reads.
# DNAs were extracted from three independent NA treatments of the HD primary fibroblast cell line GM09197 and from three independent untreated control cells. HPRT1 exons 2 and 3 were amplified using the high fidelity Platinum Taq DNA Polymerase (Invitrogen, Cat #11304) and the primers shown in Table 1. Amplification products were analyzed using single molecule, real-time (SMRT) sequencing on the PacBio RSII instrument (see FIG. 13A).
# Specifically, a ˜2.8 kb PCR product spanning exons two and three of HPRT1 was sequenced for three replicates of HD patient-derived cells in both NA- and saline-treated colonies on a Pacific Biosciences (PacBio) RSII with P6-C4v2 chemistry, 360 minute movies, and one SMRT cell per replicate/treatment combination. Individual molecules from the original cell colony were represented by single long reads from the corresponding SMRT cell. PacBio's SMRTbell construct allows a single molecule to be sequenced one or more times in a single long read based on the number of “passes” the sequencing polymerase makes around the SMRTbell insert. An average of 99,023 distinct reads were sequenced per SMRT cell. The resulting long reads contained an average of ˜7 passes through the insert sequence. The average median insert length per SMRT cell was 2,873 bp. […] Based on these filters, an average of 1,343 consensus sequences per replicate/treatment pair were produced with a range of up to 2,402 sequences. […] To estimate the mutation rate for each replicate/treatment combination, the number of times a specific variant occurred was calculated between high-quality PacBio consensus reads at a specific position in the human reference (GRCh38) divided by the total number of high-quality reads aligned across each position. For each replicate, the relative mutation rate was calculated between NA- and saline-treated cells as the mutation rate for NA-treated cells minus the rate for saline-treated cells and identified excess mutation rates based on an absolute relative rate >0.5%. […]
substance,measurement,setting,value
naphthyridine-azaquinolone,"distinct sites with extreme relative mutation rates, number","50 μM NA, across 2,897 positions, control 84",113
same,"distinct sites with extreme relative mutation rates, percent","50 μM NA, control 2.9%",3.9%
same,"variants with extreme mutation rates (absolute relative rate >0.5%), number","50 μM NA, of the 15,277 variants across three replicates, saline 101",149
same,"variants with extreme mutation rates, percent","50 μM NA, saline 0.7%",1.0%
same,mutation rates NA- versus saline-treated,"p=0.1083, two-sample Kolmogorov-Smirnov test",not significantly different
